Data: patent US20230202997A1, “CHROMANOL, QUINONE OR HYDROQUINONE COMPOUNDS FOR TREATMENT OF SEPSIS” (Sulfateq B.V., priority 2020, published 2023)

Assays:
[1] = tested on: plasma levels of IL-6, TNF-α and IL12; experiment: CLP sepsis model, plasma cytokines by ELISA; format: in vivo; details: CLP mice; SUL-138 5 mg/kg s.c. 2 h before and 8 h after surgery; 24 hours
Method: To induce sepsis, the standard cecal ligation and puncture (CLP) model was used. Animals were anesthetized by subcutaneous injection of xylazine/ketamine (100/10 mg/kg), followed by administration of buprenorphine (0.1 mg/kg) as analgesic. After confirmation of anesthesia by lack of response to paw pinch and eye reflex, the abdomen was shaved, cleaned, and de-germed using a povidone-iodine solution before a 1-cm midline incision was made. The cecum was ligated with a 6-0 suture at half the distance between distal pole and the base of the cecum and punctured once with a 21-Gauge needle (‘through-and-through’ from mesenteric toward anti-mesenteric direction) which is an accepted model for ‘mid-grade’ sepsis. A small amount of stool (2-3 mm) was then extruded to ensure wound patency. The cecum was repositioned, thereby taking care not to spill fecal material on the wound edges, followed by closure of the abdomen by running sutures to the abdominal musculature and short interrupted sutures to the skin. Next, 1 ml of saline (warmed, 0.9% NaCl s.c.) was administered to compensate for the expected relative volume depletion due to the onset of sepsis.
Mice in the SUL-138 treated groups were injection with SUL-138 (dissolved in saline, 5 mg/kg, s.c.) at 2 hours before and 8 hours after surgery, while mice in the other groups were injected with an equal volume of saline at these time-points.
Mice were sacrificed 24 hours after the procedure. Upon euthanization, EDTA-anticoagulated blood was separated into plasma by centrifugation at 1,600 g for 10 min and serum by allowing it to clot for 30 min followed by centrifugation at 3,000 g for 10 min.
To quantify the effect of sepsis severity and treatment with SUL-138 on systemic inflammation, levels of TNFα, IL-6 and IL-12 in plasma were measured using Mouse DuoSet ELISAs (DY410, DY406 and D419, respectively, RnD-Systems), according to the manufacturer's instructions. […] The optical density (OD) was measured using a microplate reader set to 450 nm, while readings at 540 nm were subtracted as correction to increase accuracy.

IL-6 mRNA expression = experiment: Endothelial inflammatory activation after endotoxin, IL-6 mRNA (Example 5); format: cell-based, Human; details: HUVEC; 10 μM for 30 min
Method: Human Umbilical Cord Endothelial Cells (HUVEC, Lonza CC-2519) were maintained on 1% gelatin-coated culture flasks in RPMI1640 medium containing 20% fetal bovine serum, 2 mM Glutamine (Sigma-Aldrich), 1% Penicillin-Streptomycin solution (Sigma-Aldrich) and 50 μg/ml Bovine Pituitary Extract (Invitrogen). HUVEC were passaged by trypsinization when the cultures reach a confluency of 70%. For all experiments, HUVEC were seeded at 0.6·10^5 cells/cm^2 and allowed to adhere for 24 hours.
HUVEC cells were lysed in triZOL reagens (Invitrogen) and total RNA isolated according to manufacturers' instruction. 1 μg total RNA per sample was reverse transcribed using the FirstAid Reverse Transcription Kit (ThermoFisher). Copy-DNA equivalents of 5 ng total RNA were amplified on a ViiA7 Real-time PCR system (ThermoFisher, Waltham, Mass.) using iTaq Universal SYBR Green Supermix (Bio-Rad, Hercules, Calif.) and primers specific for tumor necrosis factor alpha (TNFα; sense 5′-[…]-3′, antisense 5′-[…]-3′), interleukin 1 beta (IL-1β; sense 5′-[…]-3′, antisense 5′-[…]-3′), interleukin-6 (IL-6; sense 5′-[…]-3′, antisense 5′-[…]-3′) and beta actin (ACTB; sense 5′-[…]-3′, antisense 5′-[…]-3′) as loading control. Amplification was performed for 40 cycles of 95° C. for 30 s, 60° C. for 1 min. Relative mRNA expression was calculated according to the δδCt-method.

HUVEC = experiment: LPS-challenged HUVEC respiration (uncoupled state, CCCP); format: cell-based, Human; details: 10 ug/ml LPS, SUL-138 added one hour prior to LPS
Method: Human Umbilical Vein Endothelial cells (HUVEC) were obtained from the RuG/UMCG Endothelial Cell Facility. Primary isolates of umbilical cords were mixed and subsequently cultured on HUVEC culture medium, consisted of RPMI 1640 (Lonza, art.nr. BE12-115F) supplemented with 20% heat-inactivated fetal calf serum (ThermoFisher Scientific, art.nr. 10082147), 2 mM 1-glutamine (Life Technologies art.nr. 25030), 5 U/ml heparin (Leo Pharmaceutical Products), 1% Penicillin/Streptomycin (Sigma-Aldrich art.nr. P4333), and 50 μg/ml EC growth factor supplement from (Sigma-Aldrich, art.nr. E2759).
Primary HUVECs were cultured in 75-cm2 tissue culture flasks (Corning, art.nr. 430720U) at 37° C. under 5% CO2/95% air. HUVECs were used for experiments up to passage 8. Experiments were performed in 6-well (Corning art.nr. 3506) or 96-well culture plates (Corning, art.nr. 3596), at 80% confluency. Cells were stimulated with LPS E. coli 0111:B4 (Sigma-Aldrich, art.nr. L2630) in different concentrations. Cells were detached with trypsin (Sigma-Aldrich, art.nr. 25300054). All compounds were dissolved in Hanks Balanced Salt Solution (Lonza, art.nr. 10-527F).
HUVECs were pre-incubated with SUL-138 in an amount of 10 microgram/ml, which was added one hour prior to LPS-stimulation. Such pre-incubation is the standard in in vitro models.

## Cc1c(C)c2c(c(C)c1O)CC[C@@](C)(C(=O)N1CCN(CCO)CC1)O2 [SUL-138, (S)-(6-hydroxy-2,5,7,8-tetramethylchroman-2-yl)(4-(2-hydroxyethyl)piperazin-1-yl)methanone]
[1]
  plasma level of IL12: decreased by treatment with SUL-138 to levels close to untreated control
  plasma level of IL-6: decreased by treatment with SUL-138 to levels close to untreated control
  plasma level of TNF-α: clearly lower, but the difference did not reach significance
IL-6 mRNA expression
  LPS-induced mRNA expression of IL-6: precluded the LPS-induced increase in IL-1β and IL-6
HUVEC
  uncoupled respiration (CCCP): almost restores the uncoupled respiration
